How the values were obtained:
Format in all cases: cell-based
[1] = target: T1, CaV 3.2 (Homo sapiens, UniProt O95180); assay: CaV 3.2 calcium assay in stable human CaV3.2-HEK293 cells; details: control agonist calcium chloride
T1 construct: expressed in transfected cells
Protocol: (§1) Compounds were evaluated for kappa (KOR), mu (MOR), and delta (DOR) opioid receptor agonist and antagonist activity in three individual cell lines overexpressing Gαq16 (CHO-RD-HGA16, Molecular Devices) and the human kappa, mu, and delta opioid receptors, respectively. The day before the assay, cells were plated into 96-well black-walled assay plates at 30,000 cells/well in Ham's F12 supplemented with 10% fetal bovine serum, and 100 units of penicillin and streptomycin. The cells were incubated overnight at 37° C., 5% CO2. Prior to the assay, Calcium 5 dye (Molecular Devices) was reconstituted according to the manufacturer's instructions. The reconstituted dye was diluted 1:40 in pre-warmed (37° C.) assay buffer (1×HBSS, 20 mM HEPES, 2.5 mM probenecid, pH 7.4 at 37° C.). Growth medium was removed and the cells were gently washed with 100 μL of pre-warmed (37° C.) assay buffer. The cells were incubated for 45 minutes at 37° C., 5% CO2 in 200 μL of the diluted Calcium 5 dye. For the agonist screen, a single concentration of each test compound and receptor-specific controls (U69,593, DAMGO, and DPDPE for KOR, MOR, and DOR, respectively) were prepared at 10× the desired final concentration in 1% DMSO/assay buffer, aliquoted into a 96-well polystyrene plate, and warmed to 37° C. After the dye-loading incubation period, pretreatment solution was added to each well (25 μL of 9% DMSO/assay buffer) and, after 15 min, the plate was read with a FlexStation II (Molecular Devices). Calcium-mediated changes in fluorescence were monitored every 1.52 seconds over a 60 second time period, with the FlexStation II adding 50 μL of test compounds at the 19 second time point (excitation at 485 nm, detection at 525 nm). Peak kinetic reduction (SoftMax, Molecular Devices) relative fluorescence units (RFU) were used to calculate % control agonist Emax with the equation % Emax=(test compound RFU/control agonist RFU)×100. For the antagonist screens, the same procedure was followed except that the pretreatment solution consisted of the test compounds (prepared at […] the desired final concentration in 9% DMSO/assay buffer) and the FlexStation added the EC60 concentration (prepared at 10× the desired final concentration in 1% DMSO/assay buffer) of each respective control agonist. Peak RFU were used to calculate % control EC60 inhibition with the equation % inhibition=((EC60 RFU−test compound RFU)/EC60 RFU)×100. When IC50 determinations were made, the same antagonist screen procedure was followed except that cells were pretreated with 8-pt concentration-response curves of the test compounds. Peak RFU were plotted against the log of compound concentration using non-linear regression analysis to generate IC50 values (GraphPad Prism). Each test sample was analyzed in duplicate in two independent experiments.
Compounds were evaluated for activity at CaV 3.2 using stable human CaV3.2-HEK293 cells and the control agonist calcium chloride. The day before the assay, cells were plated into 96-well black-walled assay plates coated with poly-D-lysine in DMEM-F12 supplemented with 10% fetal bovine serum, 100 units penicillin/streptomycin, and 500 μM sodium pyruvate, and incubated at 37° C., 5% CO2 overnight. Prior to the assay, Calcium 5 dye (Molecular Devices) was reconstituted according to the manufacturer instructions. The reconstituted dye was diluted 1:10 in pre-warmed (37° C.) assay buffer (1×HBSS, […], […], pH 7.4 at 37° C.). The cells were incubated for 45 minutes at 37° C., 5% CO2 in 200 μL of the diluted Calcium 5 dye. Compounds were prepared as described above and the plate was read with a FLIPR Tetra (Molecular Devices). Calcium-mediated changes in fluorescence were monitored every 1 second over a 60 second time period, with the Tetra adding 25 μL of appropriate compound at the 10 second time point (excitation at 470-495 nm, detection at 515-575 nm). […]

[2] = target: DOR (Homo sapiens, UniProt P41143); assay: DOR calcium mobilization agonist/antagonist screen (CHO-RD-HGA16 cells); parameters: host or cells: CHO-RD-HGA16; details: single concentration; for Emax: CHO-RD-HGA16, agonist screen, control agonist DPDPE; for DOR Calcium % DPDPE Inhibition: antagonist screen, vs EC60 of DPDPE
Protocol: as §1

[3] = target: KOR (Homo sapiens, UniProt P41145); assay: KOR calcium mobilization agonist/antagonist screen (CHO-RD-HGA16 cells); parameters: host or cells: CHO-RD-HGA16; details: single concentration; for Emax: CHO-RD-HGA16, agonist screen, control agonist U69,593; for KOR Calcium % U69, 593 Inhibition: antagonist screen, vs EC60 of U69,593
Protocol: as §1

[4] = target: ACKR3 (Homo sapiens, UniProt P25106); assay: ACKR3 β-arrestin recruitment assay (PathHunter, β-galactosidase complementation); details: for Emax: read-out: ACKR3 β-arrestin % CXCL12 Emax ± SEM; for EC50: stable human ACKR3-β-arrestin-2-CHO cells, mean ± SEM, at least two independent experiments in duplicate
Protocol: (§2) Compounds were evaluated for agonist activity using a β-arrestin recruitment assay based on β-galactosidase complementation (PathHunter, DiscoverX). Stable human ACKR3-β-arrestin-2-CHO cells (DiscoverX) were plated into 96-well white-walled assay plates at 15,000 cells/well in Cell Plating Reagent 2 (DiscoveRx) and incubated at 37° C., 5% CO2 overnight. The next day, test compounds were prepared at 10× concentration in DPBS/1% DMSO and 10 μL was added to the cells. CXCL-12 was included as a positive agonist control. Following a 1.5 hr incubation at 37° C., 55 μL of detection reagent (prepared according to the manufacturer's specifications) was added to each well. The plate was incubated at room temperature for 1 hr, after which luminescence was measured at 1 sec/well using an EnSpire multimode plate reader (PerkinElmer). Relative luminescence units (RLU) were plotted against the log of compound concentration and data were fit to a three-parameter logistic curve to generate EC50 values (GraphPad Prism). EC50 and % Emax values are reported as means±SEM and are the result of at least two independent experiments performed in duplicate. The CXCR4 assay was run similarly except that human CXCR4-C2Cl2 cells (DiscoverX) were plated at 20,000 cells/well in Cell Plating Reagent 9. The next day, the media was removed and cells were incubated with Cell Plating Reagent 4 for 3 hrs, after which the assay was conducted as described above.

[5] = target: MOR (Homo sapiens, UniProt P35372); assay: MOR calcium mobilization agonist/antagonist screen (CHO-RD-HGA16 cells); parameters: host or cells: CHO-RD-HGA16; details: single concentration; for Emax: CHO-RD-HGA16, agonist screen, control agonist DAMGO; for MOR Calcium % DAMGO Inhibition: antagonist screen, vs EC60 of DAMGO
Protocol: as §1

[6] = target: T2, human CXCR4 (Homo sapiens, UniProt P61073); assay: CXCR4 β-arrestin recruitment assay (PathHunter); details: human CXCR4-C2Cl2 cells, relative to CXCL-12
T2 construct: host or cells: C2C12
Protocol: as §2

T2 sequence (P61073 whole entry): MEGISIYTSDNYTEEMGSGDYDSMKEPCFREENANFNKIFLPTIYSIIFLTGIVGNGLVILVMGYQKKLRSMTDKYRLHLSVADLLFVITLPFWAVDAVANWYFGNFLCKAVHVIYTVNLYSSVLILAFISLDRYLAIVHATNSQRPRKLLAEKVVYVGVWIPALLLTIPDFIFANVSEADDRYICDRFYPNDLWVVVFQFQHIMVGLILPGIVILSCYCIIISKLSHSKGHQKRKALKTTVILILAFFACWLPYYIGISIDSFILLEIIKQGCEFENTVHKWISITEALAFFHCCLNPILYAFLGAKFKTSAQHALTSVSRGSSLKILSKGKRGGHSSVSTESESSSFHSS
DOR, sequence (P41143 whole entry): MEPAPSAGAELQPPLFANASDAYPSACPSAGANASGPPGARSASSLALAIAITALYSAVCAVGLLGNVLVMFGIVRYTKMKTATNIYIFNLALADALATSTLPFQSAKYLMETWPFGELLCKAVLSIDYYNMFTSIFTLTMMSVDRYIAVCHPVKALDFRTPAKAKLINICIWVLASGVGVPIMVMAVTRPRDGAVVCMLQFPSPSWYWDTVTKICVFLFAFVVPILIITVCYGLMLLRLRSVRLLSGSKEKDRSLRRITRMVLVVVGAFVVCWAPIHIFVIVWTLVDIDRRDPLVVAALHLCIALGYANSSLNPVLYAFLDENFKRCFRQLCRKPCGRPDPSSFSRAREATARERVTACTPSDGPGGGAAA
T1 sequence (O95180 whole entry): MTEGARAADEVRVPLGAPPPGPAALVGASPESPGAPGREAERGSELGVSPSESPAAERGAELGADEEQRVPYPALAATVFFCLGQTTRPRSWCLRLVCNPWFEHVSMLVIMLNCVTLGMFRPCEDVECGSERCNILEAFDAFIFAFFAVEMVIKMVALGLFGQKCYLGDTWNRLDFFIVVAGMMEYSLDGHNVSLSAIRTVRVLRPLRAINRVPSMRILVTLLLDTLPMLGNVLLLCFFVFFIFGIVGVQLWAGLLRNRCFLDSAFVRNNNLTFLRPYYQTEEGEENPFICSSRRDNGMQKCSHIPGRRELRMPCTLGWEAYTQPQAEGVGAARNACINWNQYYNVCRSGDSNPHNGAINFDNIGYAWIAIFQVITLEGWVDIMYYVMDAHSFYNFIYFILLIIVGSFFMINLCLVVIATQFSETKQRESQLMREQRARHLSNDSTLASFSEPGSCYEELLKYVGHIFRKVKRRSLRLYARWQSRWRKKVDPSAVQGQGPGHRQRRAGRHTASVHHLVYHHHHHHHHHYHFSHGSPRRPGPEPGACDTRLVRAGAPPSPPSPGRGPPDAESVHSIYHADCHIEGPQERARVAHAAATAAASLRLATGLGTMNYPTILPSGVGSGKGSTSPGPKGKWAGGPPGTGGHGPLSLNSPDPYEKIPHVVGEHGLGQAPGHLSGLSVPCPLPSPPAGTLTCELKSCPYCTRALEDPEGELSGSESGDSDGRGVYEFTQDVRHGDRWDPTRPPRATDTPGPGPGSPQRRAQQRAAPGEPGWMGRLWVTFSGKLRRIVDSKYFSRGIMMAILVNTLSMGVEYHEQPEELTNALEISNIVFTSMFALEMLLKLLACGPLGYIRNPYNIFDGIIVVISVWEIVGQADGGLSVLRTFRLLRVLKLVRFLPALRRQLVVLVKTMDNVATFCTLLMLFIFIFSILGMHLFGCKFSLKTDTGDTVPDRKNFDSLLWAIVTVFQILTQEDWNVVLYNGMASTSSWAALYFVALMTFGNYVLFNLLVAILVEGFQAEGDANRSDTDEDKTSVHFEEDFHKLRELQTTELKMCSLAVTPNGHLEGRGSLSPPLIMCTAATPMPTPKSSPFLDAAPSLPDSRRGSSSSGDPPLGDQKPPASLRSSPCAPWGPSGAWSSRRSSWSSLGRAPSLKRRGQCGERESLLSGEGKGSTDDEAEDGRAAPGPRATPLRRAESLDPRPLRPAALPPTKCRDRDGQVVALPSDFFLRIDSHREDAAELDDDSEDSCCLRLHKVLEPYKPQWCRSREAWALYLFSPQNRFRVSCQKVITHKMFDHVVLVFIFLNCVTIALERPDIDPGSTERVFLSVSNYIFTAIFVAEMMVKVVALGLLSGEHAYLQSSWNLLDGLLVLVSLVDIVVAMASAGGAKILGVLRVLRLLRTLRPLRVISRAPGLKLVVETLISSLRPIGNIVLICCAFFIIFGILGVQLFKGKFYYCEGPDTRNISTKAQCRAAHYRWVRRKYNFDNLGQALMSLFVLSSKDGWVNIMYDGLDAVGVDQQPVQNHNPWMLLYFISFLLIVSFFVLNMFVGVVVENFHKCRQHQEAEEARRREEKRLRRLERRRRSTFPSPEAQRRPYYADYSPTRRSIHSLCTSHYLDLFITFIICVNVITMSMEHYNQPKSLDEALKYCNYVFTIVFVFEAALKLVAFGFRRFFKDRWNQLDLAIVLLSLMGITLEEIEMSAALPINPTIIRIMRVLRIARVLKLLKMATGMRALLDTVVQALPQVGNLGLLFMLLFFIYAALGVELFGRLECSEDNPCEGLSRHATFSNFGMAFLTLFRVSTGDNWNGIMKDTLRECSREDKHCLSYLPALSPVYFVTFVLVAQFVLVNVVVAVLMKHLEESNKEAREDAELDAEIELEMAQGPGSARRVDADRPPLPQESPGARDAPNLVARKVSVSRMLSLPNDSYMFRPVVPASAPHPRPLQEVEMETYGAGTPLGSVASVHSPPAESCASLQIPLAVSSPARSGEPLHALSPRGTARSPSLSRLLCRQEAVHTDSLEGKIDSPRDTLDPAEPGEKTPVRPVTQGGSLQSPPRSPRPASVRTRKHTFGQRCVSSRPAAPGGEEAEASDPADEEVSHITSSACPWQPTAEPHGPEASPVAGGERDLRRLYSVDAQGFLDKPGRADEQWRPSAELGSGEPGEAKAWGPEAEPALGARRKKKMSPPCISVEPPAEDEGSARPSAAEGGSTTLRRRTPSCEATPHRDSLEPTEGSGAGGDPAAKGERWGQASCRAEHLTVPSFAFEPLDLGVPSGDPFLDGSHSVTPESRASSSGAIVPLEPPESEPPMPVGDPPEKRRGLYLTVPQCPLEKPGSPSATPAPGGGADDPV
MOR, sequence (P35372 whole entry): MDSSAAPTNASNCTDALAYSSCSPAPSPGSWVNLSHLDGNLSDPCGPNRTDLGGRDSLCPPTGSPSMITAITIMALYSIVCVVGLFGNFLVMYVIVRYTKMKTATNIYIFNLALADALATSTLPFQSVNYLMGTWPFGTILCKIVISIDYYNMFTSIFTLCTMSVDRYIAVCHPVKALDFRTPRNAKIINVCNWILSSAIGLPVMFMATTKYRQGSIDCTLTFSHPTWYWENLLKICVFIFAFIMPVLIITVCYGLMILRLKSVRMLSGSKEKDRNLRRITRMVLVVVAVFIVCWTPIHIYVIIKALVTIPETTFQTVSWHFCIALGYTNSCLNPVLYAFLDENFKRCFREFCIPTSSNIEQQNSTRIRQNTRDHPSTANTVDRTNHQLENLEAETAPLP
KOR, sequence (P41145 whole entry): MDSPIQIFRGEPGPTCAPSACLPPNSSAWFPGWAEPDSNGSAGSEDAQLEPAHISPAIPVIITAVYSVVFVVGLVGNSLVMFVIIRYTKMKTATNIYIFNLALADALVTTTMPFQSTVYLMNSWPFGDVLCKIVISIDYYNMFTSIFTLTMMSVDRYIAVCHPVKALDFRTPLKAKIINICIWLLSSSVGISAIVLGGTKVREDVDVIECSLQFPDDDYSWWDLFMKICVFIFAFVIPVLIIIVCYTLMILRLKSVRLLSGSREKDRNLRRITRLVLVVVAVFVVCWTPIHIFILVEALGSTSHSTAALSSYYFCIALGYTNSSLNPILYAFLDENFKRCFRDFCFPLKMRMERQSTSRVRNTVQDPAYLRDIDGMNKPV
ACKR3, sequence (P25106 whole entry): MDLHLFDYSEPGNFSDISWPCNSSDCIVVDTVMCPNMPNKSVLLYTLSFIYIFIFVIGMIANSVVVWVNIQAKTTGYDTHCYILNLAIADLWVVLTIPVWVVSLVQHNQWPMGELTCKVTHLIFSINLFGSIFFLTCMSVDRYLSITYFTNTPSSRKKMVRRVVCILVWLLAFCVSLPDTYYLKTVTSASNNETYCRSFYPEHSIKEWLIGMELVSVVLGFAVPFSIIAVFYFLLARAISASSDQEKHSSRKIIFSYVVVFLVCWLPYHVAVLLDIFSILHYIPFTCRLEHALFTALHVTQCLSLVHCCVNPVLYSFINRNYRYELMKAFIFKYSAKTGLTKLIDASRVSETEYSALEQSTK

Row | CaV 3.2 % CaCl2 Inhibition [1] [%] | Emax [2] [%] | DOR Calcium % DPDPE Inhibition [2] [%] | Emax [3] [%] | KOR Calcium % U69, 593 Inhibition [3] [%] | Emax [4] [%] | EC50 [4] [µM] | Emax [5] [%] | MOR Calcium % DAMGO Inhibition [5] [%] | CXCR4 β-arrestin % CXCL-12Emax (n = 2) [6] [%] | Compound
1 | 50 | 6 | 16 | 14 | 38 | 139 ± 2 | 1.87 ± 0.096 | 2 | 14 | 0 | C/C=C1/CN(Cc2ccc(OC)cc2)CC[C@H]1C(=O)c1cc2ccccc2[nH]1 [WW-7, (3E,4R)-(3-ethylidene-1-(4-methoxybenzyl)piperidin-4-yl)(1H-indol-2-yl)methanone]
2 | 21 | 0 | 18 | 2 | 23 | 81 ± 5 | 4.62 ± 0.41 | 0 | 15 | 6 | C=C1c2[nH]c3ccccc3c2CN2CC[C@@H]1/C(=C\C)C2 [WW-16, (4E,5R)-4-ethylidene-6-methylidene-1,3,4,5,6,7-hexahydro-2,5-ethanoazocino[4,3-b]indole]
3 | 2 | 0 | 3 | 20 | 18 |  | > 10 | 0 | 7 | 7 | CCC1CN2CC[C@H]1C(=O)c1[nH]c3ccccc3c1C2 (stereo partly drawn) [WW-15, (5R)-4-ethyl-1,4,5,7-tetrahydro-2,5-ethanoazocino[4,3-b]indol-6(3H)-one]
4 | 9 | 2 | 22 | 20 | 17 | 171 ± 6 | 8.15 ± 0.59 | 1 | 13 | 7 | C/C=C1/CN2CC[C@H]1C(=O)c1[nH]c3ccc(OC)cc3c1C2 [WW-5, (4E,5R)-10-methoxy-4-ethylidene-1,4,5,7-tetrahydro-2,5-ethanoazocino[4,3-b]indol-6(3H)-one]
5 | −2 | 0 | 6 | 0 | 8 |  | > 10 | 0 | 2 | 8 | O=C(c1cc2ccccc2[nH]1)C1CCN(Cc2ccccc2)CC1 [WW-18, (1-Benzylpiperidin-4-yl)(1H-indol-2-yl)methanone]
6 | −11 | 0 | 11 | 1 | 5 | 146 ± 6 | 4.81 ± 0.45 | 1 | 4 | 7 | CCOC(=O)C1CCN(Cc2c[nH]c3ccccc23)CC1 [WW-17, ethyl 1-(1H-indol-3-ylmethyl)piperidine-4-carboxylate]
7 | 5 | 0 | 18 | 1 | 22 |  | > 10 | 0 | 5 | 4 | C/C=C1/CN2CC[C@H]1C(=O)c1[nH]c3ccc(Cl)cc3c1C2 [WW-2, (4E,5R)-10-chloro-4-ethylidene-1,4,5,7-tetrahydro-2,5-ethanoazocino[4,3-b]indol-6(3H)-one]
8 | 45 | 0 | 31 | 1 | 23 | 132 ± 6 | 2.07 ± 0.18 | 0 | 34 | 10 | C/C=C1/CN(CCc2ccc(F)cc2)CC[C@H]1C(=O)c1cc2ccccc2[nH]1 [WW-9, [(3E,4R)-3-ethylidene-1-(4-fluorophenethyl)piperidin-4-yl](1H-indol-2-yl)methanone]
9 |  |  |  |  |  |  | > 10 |  |  | 9 | CC(C)(C)OC(=O)N1CC[C@H](NC(=O)c2cc3ccccc3[nH]2)C1 [WW-26, Tert-butyl (3S)-3-[(1H-indol-2-ylcarbonyl)amino]pyrrolidine-1-carboxylate]
10 |  |  |  |  |  | 145 ± 16 | 3.78 ± 0.98 |  |  | 4 | C/C=C1/CN(CCCCOc2ccccc2)CC[C@H]1C(=O)c1cc2ccccc2[nH]1 [WW-72, (3E,4R)-(3-ethylidene-1-(4-phenoxybutyl)piperidin-4-yl)(1H-indol-2-yl)methanone]
11 |  |  |  |  |  | 172 ± 6 | 0.177 ± 0.01 |  |  | 3 | C/C=C1/CN(CCCCC)CC[C@H]1C(O)c1cc2ccccc2n1S(=O)(=O)c1ccccc1 (some centres unmarked) [WW-74]
12 |  |  |  |  |  |  | > 10 |  |  | −2 | C/C=C1/CN(Cc2ccc(OC)cc2)CC[C@H]1C(O)c1cc2cc(C#N)ccc2n1S(=O)(=O)c1ccccc1 (some centres unmarked) [WW-70, 2-{[(3E, 4R)-(3-ethylidene-1-(4-methoxybenzyl)piperidin-4-yl)](hydroxy)methyl}-1-(phenylsulfonyl)-1H-indole-5-carbonitrile]
13 |  |  |  |  |  |  | > 10 |  |  | 7 | NC1CN(C(=O)c2cc3ccccc3[nH]2)C1 [WW-31, 1-(1H-indole-2-ylcarbonyl)azetidin-3-amine]

Row | Compound | CaV 3.2 % CaCl2 Inhibition [1] [%] | Emax [2] [%] | DOR Calcium % DPDPE Inhibition [2] [%] | Emax [3] [%] | KOR Calcium % U69, 593 Inhibition [3] [%] | Emax [4] [%] | EC50 [4] [µM] | Emax [5] [%] | MOR Calcium % DAMGO Inhibition [5] [%] | CXCR4 β-arrestin % CXCL-12Emax (n = 2) [6] [%]
14 | CCCCCN1CCC(C(=O)c2cc3ccccc3n2CCCCC)CC1 [WW-20] |  |  |  |  |  | 154 ± 7 | 1.77 ± 0.078 |  |  | 11
